# Reference: patent US9376423B2, “PKC-epsilon inhibitors” (The Regents of the University of California, priority 2010, dated 2016)
# Read-outs that look alike come from different tables or passages of the source.
# Experiments:
# Format in all cases: biochemical
# [1] = biological target: T1, PKCε (Homo sapiens, UniProt Q02156); assay: FRET based LANCE Ultra kinase assay
# T1 sequence (Q02156 1-737): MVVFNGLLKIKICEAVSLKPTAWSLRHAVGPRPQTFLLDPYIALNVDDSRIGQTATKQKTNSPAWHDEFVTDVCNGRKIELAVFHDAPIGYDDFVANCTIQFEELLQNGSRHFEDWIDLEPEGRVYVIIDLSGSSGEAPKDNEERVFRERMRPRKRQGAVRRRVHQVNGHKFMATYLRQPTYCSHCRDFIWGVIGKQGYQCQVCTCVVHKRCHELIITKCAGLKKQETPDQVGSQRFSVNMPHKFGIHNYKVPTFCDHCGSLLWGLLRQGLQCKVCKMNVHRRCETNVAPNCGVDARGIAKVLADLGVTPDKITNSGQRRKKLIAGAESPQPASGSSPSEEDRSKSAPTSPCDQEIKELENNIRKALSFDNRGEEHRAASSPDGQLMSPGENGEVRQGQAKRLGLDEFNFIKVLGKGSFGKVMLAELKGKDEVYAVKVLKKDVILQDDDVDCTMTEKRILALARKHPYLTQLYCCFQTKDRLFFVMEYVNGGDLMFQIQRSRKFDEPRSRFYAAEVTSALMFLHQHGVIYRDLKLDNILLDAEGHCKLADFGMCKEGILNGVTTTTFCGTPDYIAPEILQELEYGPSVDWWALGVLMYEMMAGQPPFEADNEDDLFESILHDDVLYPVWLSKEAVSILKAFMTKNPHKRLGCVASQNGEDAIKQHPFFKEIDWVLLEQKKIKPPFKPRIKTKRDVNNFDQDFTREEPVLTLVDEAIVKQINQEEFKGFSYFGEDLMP
# Protocol: Certain compounds of this invention were tested in the captioned assay.
# [2] = biological target: T1, PKCε; assay: Primary PKCε phosphotransferase assay; set-up: FLAG; made in house; host or cells: COS-7
# Protocol: The assay mixture can contain 2 ng FLAG-tagged human PKCε expressed and purified from COS-7 cells in 25 μl kinase buffer containing 20 mM Tris-HCl, pH 7.4, 0.25 mM EGTA, 0.1 mg/ml BSA, 0.72% TritonX-100, 10 mM MgCl2, 0.48 μg/μl L-α-phosphatidylserine (PS) and 0.107 μg/μl sn-1,2-dioleoylglecerol (DG) (Avanti Polar Lipids, Alabaster, Ala., USA), 2 μM K(Biotin)-[…], 2.5 μM ATP and 0.05 μCi [^32γ-P]ATP. After incubation at 27° C. for 90 min, the reaction is terminated by adding 12.5 μl of 7.5 M of guanidine hydrochloride. Eight microliters of reaction mixture is spotted onto a pre-cut streptavidin-coated SAM Biotin Capture membrane. […] The membrane is then air dried at room temperature for 60 min and radioactivity remaining on the membrane can be measured by liquid scintillation counting. Specific PKCε activity can then be calculated as the difference between cpms detected in the presence and absence of lipids (PS and DG). Maximal PKCε activity (positive control) can be detected in reactions lacking an inhibitor. Complete inhibition (negative control) can be measured in the presence of the general PKC inhibitor 5 μM bisindolylmaleimide I. The normalized percent inhibition (NPI) can be calculated at each concentration of inhibitor by the formula: […]
# IC50 values can be calculated from normalized dose-response curves by nonlinear regression analysis. […]
# [3] = biological target: T2, PKCγ (Homo sapiens, UniProt P05129); assay: Inhibition of conventional PKCγ (Example 4); conditions: 10 μM inhibitor; n = 3; read-out: Percent inhibition of PKC activity, PKCγ
# T2 construct: purchased Invitrogen (Carlsbad, Calif., USA)
# Excerpt: (§1) Compound selectivity for inhibiting PKCε and not other PKC isozymes or ROCK1 can be determined according to the following assay. Specificity counter screens can be performed against one member of each subclass of PKCs (conventional, novel and atypical).
# (§2) For example, to measure inhibition of conventional PKCγ, novel PKCδ, and atypical PKCζ, the same kinase assay disclosed above for PKCε can be used with recombinant human PKCγ, PKCδ, or PKCζ purchased from Invitrogen (Carlsbad, Calif., USA) in place of PKCε, with 0.4 mM CaCl2 assay buffer for PKCγ.
# [4] = biological target: T3, PKCδ (Homo sapiens, UniProt Q05655); assay: Inhibition of novel PKCδ (Example 4); conditions: n = 3; for inhibition at 10 µM: 10 μM inhibitor, read-out: Percent inhibition of PKC activity, PKCδ; for IC50: ± SE, read-out: Log IC50 (M) PKCδ (converted)
# T3 construct: purchased Invitrogen (Carlsbad, Calif., USA)
# T3 sequence (Q05655 whole entry): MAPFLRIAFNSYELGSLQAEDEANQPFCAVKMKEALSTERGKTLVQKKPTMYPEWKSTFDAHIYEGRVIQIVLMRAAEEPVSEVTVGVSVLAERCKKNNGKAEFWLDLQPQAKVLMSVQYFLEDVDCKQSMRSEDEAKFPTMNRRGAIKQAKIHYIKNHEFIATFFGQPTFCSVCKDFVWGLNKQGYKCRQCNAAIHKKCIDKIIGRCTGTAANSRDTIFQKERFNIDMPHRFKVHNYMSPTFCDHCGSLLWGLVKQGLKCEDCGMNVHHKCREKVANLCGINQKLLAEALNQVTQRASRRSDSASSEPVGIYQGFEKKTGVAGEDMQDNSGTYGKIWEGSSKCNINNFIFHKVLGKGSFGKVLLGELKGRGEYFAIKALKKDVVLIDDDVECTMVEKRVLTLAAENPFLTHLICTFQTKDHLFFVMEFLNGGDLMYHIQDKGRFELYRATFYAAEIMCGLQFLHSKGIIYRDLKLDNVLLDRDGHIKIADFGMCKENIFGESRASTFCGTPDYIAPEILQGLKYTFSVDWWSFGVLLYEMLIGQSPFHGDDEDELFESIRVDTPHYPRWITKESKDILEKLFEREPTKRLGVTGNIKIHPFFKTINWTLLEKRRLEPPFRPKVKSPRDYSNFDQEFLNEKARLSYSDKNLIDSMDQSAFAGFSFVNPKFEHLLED
# Excerpt: as §1, §2
# [5] = biological target: T4, PKCθ (Homo sapiens, UniProt Q04759); assay: Inhibition of novel PKCθ (Example 4); conditions: n = 3; for inhibition at 10 µM: 10 μM inhibitor, read-out: Percent inhibition of PKC activity, PKCθ; for IC50: ± SE, read-out: Log IC50 (M) PKCθ (converted)
# T4 construct: purchased Invitrogen P2996
# T4 sequence (Q04759 whole entry): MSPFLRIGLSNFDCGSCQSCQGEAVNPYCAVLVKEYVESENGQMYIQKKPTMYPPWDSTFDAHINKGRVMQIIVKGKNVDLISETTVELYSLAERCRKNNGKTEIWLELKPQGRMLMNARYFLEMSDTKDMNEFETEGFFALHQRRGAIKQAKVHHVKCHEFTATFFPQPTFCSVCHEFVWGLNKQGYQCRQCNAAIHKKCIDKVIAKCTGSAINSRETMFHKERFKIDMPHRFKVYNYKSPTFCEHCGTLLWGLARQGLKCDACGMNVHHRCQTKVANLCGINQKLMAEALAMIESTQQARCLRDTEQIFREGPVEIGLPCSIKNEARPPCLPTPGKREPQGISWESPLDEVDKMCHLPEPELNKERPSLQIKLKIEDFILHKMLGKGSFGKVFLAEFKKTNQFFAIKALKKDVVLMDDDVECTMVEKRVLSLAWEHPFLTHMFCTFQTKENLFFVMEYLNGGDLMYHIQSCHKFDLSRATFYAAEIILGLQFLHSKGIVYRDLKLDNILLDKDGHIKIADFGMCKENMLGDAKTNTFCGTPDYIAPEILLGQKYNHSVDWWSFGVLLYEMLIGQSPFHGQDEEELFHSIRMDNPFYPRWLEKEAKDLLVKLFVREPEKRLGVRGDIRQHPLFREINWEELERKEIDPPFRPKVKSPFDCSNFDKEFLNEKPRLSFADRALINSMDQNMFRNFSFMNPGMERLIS
# Excerpt: Inhibition of PKC theta activity can be measured using the same primary phosphotransferase assay for PKCε except one substitutes recombinant human PKC theta purchased from Invitrogen for PKCε. PKC theta can also be assayed with a fluorescence polarization (FP) assay using the commercially available Protein Kinase C Assay Kit, Red, from Invitrogen (Product ID No P2941), essentially in accordance with the protocol supplied by the manufacturer. The substrate used is […] (MW 1561), which can be obtained from Invitrogen (Product ID No P2760). The isozyme PKC theta can be obtained from Invitrogen (Product ID No P2996).
# [6] = biological target: T5, PKCζ (Homo sapiens, UniProt Q05513); assay: Inhibition of atypical PKCζ (Example 4); conditions: for activity against atypical PKCζ: 10 μM; for inhibition at 10 µM: 10 μM inhibitor, n = 3, read-out: Percent inhibition of PKC activity, PKCζ
# T5 construct: purchased Invitrogen (Carlsbad, Calif., USA)
# T5 sequence (Q05513 1-592): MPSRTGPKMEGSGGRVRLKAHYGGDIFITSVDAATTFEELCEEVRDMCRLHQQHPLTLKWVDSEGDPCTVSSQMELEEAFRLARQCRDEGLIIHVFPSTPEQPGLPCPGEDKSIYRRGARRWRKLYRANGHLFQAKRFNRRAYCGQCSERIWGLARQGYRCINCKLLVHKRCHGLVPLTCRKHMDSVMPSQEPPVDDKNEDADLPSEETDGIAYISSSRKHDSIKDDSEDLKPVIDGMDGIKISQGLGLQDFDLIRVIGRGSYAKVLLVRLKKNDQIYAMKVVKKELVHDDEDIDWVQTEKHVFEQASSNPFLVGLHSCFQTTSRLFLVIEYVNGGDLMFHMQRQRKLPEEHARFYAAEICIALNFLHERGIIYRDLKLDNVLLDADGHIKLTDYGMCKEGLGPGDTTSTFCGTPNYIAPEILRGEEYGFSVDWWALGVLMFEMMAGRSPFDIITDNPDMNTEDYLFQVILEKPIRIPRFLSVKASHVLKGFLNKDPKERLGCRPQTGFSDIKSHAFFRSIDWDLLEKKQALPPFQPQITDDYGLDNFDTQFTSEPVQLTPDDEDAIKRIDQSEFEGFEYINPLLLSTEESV
# Excerpt: as §1, §2
# [7] = biological target: T1, PKCε; assay: Inhibition of PKCε (Example 4); conditions: for IC50: ± SE, read-out: Log IC50 (M) PKCε (converted)
# [8] = selection criterion for Example 4, read-out: Ki for PKCε
structure (smiles),measurement,setting,value
"NC(CC(=O)NCC1(c2ccc(Cl)cc2)CC1)[C@H]1CC[C@H](C(=O)Nc2ccncc2)CC1 (relative stereo) [Compound 2, trans-4-[1-Amino-2-[[[1-(4-chlorophenyl)cyclopropyl]methylamino]carbonyl]ethyl]-N-4-pyridinyl-cyclohexylcarboxamide]",IC50,[1],3240 nM
same,IC50,[2],1690 nM
NC(CNC(=O)C1(c2ccc(F)cc2)CC1)[C@H]1CC[C@H](C(=O)Nc2ccncc2)CC1 (stereo partly shown) [Compound 3],IC50,[1]; read-out: Log IC50 (converted),146 nM
NC(CNC(=O)C1(c2ccc(F)cc2Cl)CCCC1)[C@H]1CC[C@H](C(=O)Nc2ccncc2)CC1 (stereo partly shown) [Compound 4],IC50,[1]; read-out: Log IC50 (converted),121 nM
Cl.NC(CNC(=O)C1(c2ccc(F)cc2)CCCC1)[C@H]1CC[C@H](C(=O)Nc2ccncc2)CC1 (stereo partly shown) [Compound 5],IC50,[1]; read-out: IC50,42.6 nM
same,IC50,[1]; read-out: Log IC50 (converted),42.7 nM
same,inhibition at 10 µM,[3],17 ± 1.3%
same,inhibition at 10 µM,[4],96.4 ± 1%
same,Ki,[4],125 nM
same,IC50,[4],5.25e-07 M
same,inhibition at 10 µM,[5],94.4 ± 1%
same,Ki,[5],86.9 nM
same,IC50,[5],3.63e-07 M
same,activity against atypical PKCζ,[6],almost no activity
same,inhibition at 10 µM,[6],6.3 ± 2.1%
same,Ki,"[7]; n = 3, read-out: Ki (nM) PKCε",12.8 nM
same,Ki,[7]; [8],< 20 nM
same,IC50,[7]; n = 3,4.27e-08 M
NC(CNC(=O)C1(c2ccc(F)c(F)c2)CC1)[C@H]1CC[C@H](C(=O)Nc2ccncc2)CC1 (stereo partly shown) [Compound 6],IC50,[1]; read-out: IC50,52.2 nM
CC(C)(C(=O)NCC(N)[C@H]1CC[C@H](C(=O)Nc2ccncc2)CC1)c1cccs1 (stereo partly shown) [Compound 7],IC50,[1]; read-out: Log IC50 (converted),280 nM
NC(CNC(=O)C1CCc2cc(Cl)ccc21)[C@H]1CC[C@H](C(=O)Nc2ccncc2)CC1 (stereo partly shown) [Compound 8],IC50,[1]; read-out: Log IC50 (converted),359 nM
CC(C)(C(=O)NCC(N)[C@H]1CC[C@H](C(=O)Nc2ccncc2)CC1)c1ccc(Cl)cc1.Cl (stereo partly shown) [Compound 9],IC50,[1]; read-out: Log IC50 (converted),40 nM
same,inhibition at 10 µM,[3],30 ± 3.3%
same,inhibition at 10 µM,[4],98.9 ± 0.6%
same,Ki,[4],66.5 nM
same,IC50,[4],2.69e-07 M
same,inhibition at 10 µM,[5],99.6 ± 1.3%
same,Ki,[5],67 nM
same,IC50,[5],2.75e-07 M
same,activity against atypical PKCζ,[6],almost no activity
same,inhibition at 10 µM,[6],8.9 ± 1.8%
same,Ki,"[7]; n = 3, read-out: Ki (nM) PKCε",9.3 nM
same,Ki,[7]; [8],< 20 nM
same,IC50,[7]; n = 3,3.8e-08 M
NC(C(=O)NC1COc2ccccc21)[C@H]1CC[C@H](C(=O)Nc2ccncc2)CC1 (stereo partly shown) [Compound 10],IC50,[1]; read-out: Log IC50 (converted),2020 nM
NC(C(=O)NC1CCCc2ccccc21)[C@H]1CC[C@H](C(=O)Nc2ccncc2)CC1 (stereo partly shown) [Compound 11],IC50,[1]; read-out: Log IC50 (converted),3090 nM
NC(C(=O)NCc1ccc(F)cc1)[C@H]1CC[C@H](C(=O)Nc2ccncc2)CC1 (stereo partly shown) [Compound 12],IC50,[1]; read-out: Log IC50 (converted),2370 nM
